Experiments:
[1] = Test for water solubility; assay type: physicochemical; conditions: water
Excerpt: 3. Test for water solubility
A standard plot of UV absorbance(220 nm) vs. concentration was made; and employed to determine water-solubility.
The mixture was then passed through a 0.45 micron disposable membrane filter before dilution and UV measurement.

[2] = system: murine leukemia L1210 cells; assay: Growth inhibition test on cultured murine leukemia L1210 cells; assay type: cell-based; conditions: 48 hours, 37° C., Trypan blue viability
How it was run: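 Read-out is Trypan blue (0.17%) viability versus compound-free controls. Cells, 1×10^5, were cultured 48 h at 37° C under 5% CO2 in RPMI 1640/10% FCS containing various compound concentrations.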

[3] = system: ICR mice; assay: Acute toxicity test; assay type: in vivo; parameters: Lethality: unit not given here; conditions: for Lethality: 10080 min
Description: 7-week-old ICR mice(male: 34±2 g; female: 31±2 g) were fed with solid food and water under the condition of 23±1° C. temperature and 65±5% humidity before the test.
Each treatment group consisted of 6 mice. The test compounds were administered intraperitoneally.
For 7 days after the administration, the appearance and the fate of the tested animals were recorded. The dead animals were subjected to autopsy and their visible pathological changes were observed. Their viscerals were stored in 10% formalin solution.

[4] = system: murine leukemia L1210; assay: Antitumor activity test on murine leukemia L1210 in vivo; parameters: species or system male BDF1 mice; conditions: days 1, 5, 9
How it was run: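 Male BDF1 mice (6 weeks, 21±3 g; n=7) received 1×10^6 leukemia cells into the peritoneum on day 0, then test compound suspended or dissolved in 0.5% CMC i.p. on days 1, 5, 9. Activity expressed as T/C %, mean survival treated versus 0.5% CMC-injected controls.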

Question: Which Solubility in water [1] does the source give for `CCC1(C)OC2C[NH2+][Pt-2]3([NH2+]CC2O1)[O]CC(=O)[O]3` [Example 9, (glycolato-O,O')[(4R,5R)-4,5-bis(aminomethyl)-2-ethyl-2-methyl-1,3-dioxolane]platinum(II)] here?
Answer: Its Solubility in water is 11600 µg/mL.

Question: And the “IC50 (concentration required for 50% inhibition of growth)” value [2]?
Answer: The value was 0.08 µg/mL.

Question: What about the “Number of dead mice for 7 days” value ([3]; female, 41.3 mg/kg i.p.) of the same compound?
Answer: The value was 2/6.

Question: And the “Number of dead mice, 1st day” value ([3]; female, 41.3 mg/kg i.p.)?
Answer: The value was 0/6.

Question: And the “Number of dead mice, 4th day” value ([3]; female, 41.3 mg/kg i.p.)?
Answer: Its value is 2/6.

Question: What about the Lethality ([3]; female, 41.3 mg/kg i.p.) of the same compound?
Answer: The Lethality was 0.0.

Question: What about the “Number of dead mice for 7 days” value ([3]; female, 54.9 mg/kg i.p.) of the same compound?
Answer: The value was 4/6.

Question: And the “Number of dead mice, 1st day” value ([3]; female, 54.9 mg/kg i.p.)?
Answer: The value was 0/6.

Question: And the “Number of dead mice, 3rd day” value ([3]; female, 54.9 mg/kg i.p.)?
Answer: The value was 1/6.

Question: And the “Number of dead mice, 4th day” value ([3]; female, 54.9 mg/kg i.p.)?
Answer: Its value is 3/5.

Question: What about the Lethality ([3]; female, 54.9 mg/kg i.p.) of the same compound?
Answer: The Lethality was 50.0.

Question: And the “Number of dead mice for 7 days” value ([3]; female, 71.4 mg/kg i.p.)?
Answer: The value was 5/6.

Question: What about the “Number of dead mice, 1st day” value ([3]; female, 71.4 mg/kg i.p.) of the same compound?
Answer: The value was 0/6.

Question: What about the “Number of dead mice, 3rd day” value ([3]; female, 71.4 mg/kg i.p.) of the same compound?
Answer: The value was 1/6.

Question: What about the “Number of dead mice, 4th day” value ([3]; female, 71.4 mg/kg i.p.) of the same compound?
Answer: The value was 3/5.

Question: And the “Number of dead mice, 5th day” value ([3]; female, 71.4 mg/kg i.p.)?
Answer: The value was 1/2.

Question: What about the Lethality ([3]; female, 71.4 mg/kg i.p.) of the same compound?
Answer: Its Lethality is 83.7.

Question: And the “Number of dead mice for 7 days” value ([3]; female, 91.8 mg/kg i.p.)?
Answer: Its value is 6/6.

Question: And the “Number of dead mice, 1st day” value ([3]; female, 91.8 mg/kg i.p.)?
Answer: Its value is 0/6.

Question: And the “Number of dead mice, 3rd day” value ([3]; female, 91.8 mg/kg i.p.)?
Answer: Its value is 2/6.

Question: What about the “Number of dead mice, 4th day” value ([3]; female, 91.8 mg/kg i.p.) of the same compound?
Answer: The value was 4/4.

Question: And the Lethality ([3]; female, 91.8 mg/kg i.p.)?
Answer: The Lethality was 100.0.

Question: And the “Number of dead mice for 7 days” value ([3]; male, 41.3 mg/kg i.p.)?
Answer: Its value is 0/6.

Question: What about the “Number of dead mice, 1st day” value ([3]; male, 41.3 mg/kg i.p.) of the same compound?
Answer: The value was 0/6.

Question: What about the “Number of dead mice, 4th day” value ([3]; male, 41.3 mg/kg i.p.) of the same compound?
Answer: The value was 2/6.

Question: And the “Number of dead mice, 5th day” value ([3]; male, 41.3 mg/kg i.p.)?
Answer: The value was 1/4.

Question: What about the Lethality ([3]; male, 41.3 mg/kg i.p.) of the same compound?
Answer: Its Lethality is 0.0.

Question: And the “Number of dead mice for 7 days” value ([3]; male, 54.9 mg/kg i.p.)?
Answer: Its value is 4/6.

Question: And the “Number of dead mice, 1st day” value ([3]; male, 54.9 mg/kg i.p.)?
Answer: Its value is 0/6.

Question: What about the “Number of dead mice, 4th day” value ([3]; male, 54.9 mg/kg i.p.) of the same compound?
Answer: The value was 2/6.

Question: What about the “Number of dead mice, 5th day” value ([3]; male, 54.9 mg/kg i.p.) of the same compound?
Answer: Its value is 2/4.

Question: What about the Lethality ([3]; male, 54.9 mg/kg i.p.) of the same compound?
Answer: The Lethality was 66.7.

Question: What about the “Number of dead mice for 7 days” value ([3]; male, 71.4 mg/kg i.p.) of the same compound?
Answer: Its value is 5/6.

Question: What about the “Number of dead mice, 1st day” value ([3]; male, 71.4 mg/kg i.p.) of the same compound?
Answer: Its value is 0/6.

Question: And the “Number of dead mice, 4th day” value ([3]; male, 71.4 mg/kg i.p.)?
Answer: The value was 1/6.

Question: What about the “Number of dead mice, 5th day” value ([3]; male, 71.4 mg/kg i.p.) of the same compound?
Answer: The value was 2/5.

Question: And the “Number of dead mice, 6th day” value ([3]; male, 71.4 mg/kg i.p.)?
Answer: The value was 2/3.

Question: What about the Lethality ([3]; male, 71.4 mg/kg i.p.) of the same compound?
Answer: The Lethality was 83.3.

Question: And the “Number of dead mice for 7 days” value ([3]; male, 91.8 mg/kg i.p.)?
Answer: The value was 6/6.

Question: What about the “Number of dead mice, 1st day” value ([3]; male, 91.8 mg/kg i.p.) of the same compound?
Answer: The value was 0/6.

Question: What about the “Number of dead mice, 2nd day” value ([3]; male, 91.8 mg/kg i.p.) of the same compound?
Answer: The value was 1/6.

Question: And the “Number of dead mice, 3rd day” value ([3]; male, 91.8 mg/kg i.p.)?
Answer: The value was 4/5.

Question: And the “Number of dead mice, 4th day” value ([3]; male, 91.8 mg/kg i.p.)?
Answer: Its value is 1/1.

Question: And the Lethality ([3]; male, 91.8 mg/kg i.p.)?
Answer: Its Lethality is 100.0.

Question: What about the “T/C (%)” value ([4]; 3.1 mg/kg i.p.) of the same compound?
Answer: Its value is 148%.

Question: What about the “T/C (%)” value ([4]; 6.2 mg/kg i.p.) of the same compound?
Answer: Its value is 187%.

Question: And the “T/C (%)” value ([4]; 12.5 mg/kg i.p.)?
Answer: Its value is 231%.

Question: What about the “T/C (%)” value ([4]; 25 mg/kg i.p.) of the same compound?
Answer: Its value is “toxic”.

Question: And the “T/C (%)” value ([4]; 50 mg/kg i.p.)?
Answer: Its value is “toxic”.

Question: Which results are given for `CC1[O][Pt][O]C1=O.NCC1OC2(CCCC2)OC1CN` [Example 15, (L-lactato-O,O')[(4R,5R)-4,5-bis(aminomethyl)-1,3-dioxolane-2-spiro-1'-cyclopentane]platinum(II)]?
Answer: Solubility in water [1]: 4900 µg/mL; IC50 (concentration required for 50% inhibition of growth) [2]: 0.33 µg/mL; Number of dead mice for 7 days ([3]; female, 41.3 mg/kg i.p.): 0/6; Number of dead mice, 1st day ([3]; female, 41.3 mg/kg i.p.): 0/6; Lethality ([3]; female, 41.3 mg/kg i.p.): 0.0; Number of dead mice for 7 days ([3]; female, 54.9 mg/kg i.p.): 3/6; Number of dead mice, 1st day ([3]; female, 54.9 mg/kg i.p.): 0/6; Number of dead mice, 3rd day ([3]; female, 54.9 mg/kg i.p.): 1/6; Number of dead mice, 4th day ([3]; female, 54.9 mg/kg i.p.): 1/5; Number of dead mice, 5th day ([3]; female, 54.9 mg/kg i.p.): 1/4; Lethality ([3]; female, 54.9 mg/kg i.p.): 50.0; Number of dead mice for 7 days ([3]; female, 71.4 mg/kg i.p.): 5/6; Number of dead mice, 1st day ([3]; female, 71.4 mg/kg i.p.): 0/6; Number of dead mice, 4th day ([3]; female, 71.4 mg/kg i.p.): 1/6; Number of dead mice, 5th day ([3]; female, 71.4 mg/kg i.p.): 3/5; Number of dead mice, 6th day ([3]; female, 71.4 mg/kg i.p.): 1/2; Lethality ([3]; female, 71.4 mg/kg i.p.): 83.7; Number of dead mice for 7 days ([3]; female, 91.8 mg/kg i.p.): 6/6; Number of dead mice, 1st day ([3]; female, 91.8 mg/kg i.p.): 0/6; Number of dead mice, 2nd day ([3]; female, 91.8 mg/kg i.p.): 1/6; Number of dead mice, 3rd day ([3]; female, 91.8 mg/kg i.p.): 2/5; Number of dead mice, 4th day ([3]; female, 91.8 mg/kg i.p.): 2/3; Number of dead mice, 5th day ([3]; female, 91.8 mg/kg i.p.): 1/1; Lethality ([3]; female, 91.8 mg/kg i.p.): 100.0; Number of dead mice for 7 days ([3]; male, 41.3 mg/kg i.p.): 0/6; Number of dead mice, 1st day ([3]; male, 41.3 mg/kg i.p.): 0/6; Lethality ([3]; male, 41.3 mg/kg i.p.): 0.0; Number of dead mice for 7 days ([3]; male, 54.9 mg/kg i.p.): 4/6; Number of dead mice, 1st day ([3]; male, 54.9 mg/kg i.p.): 0/6; Number of dead mice, 3rd day ([3]; male, 54.9 mg/kg i.p.): 2/6; Number of dead mice, 6th day ([3]; male, 54.9 mg/kg i.p.): 2/4; Lethality ([3]; male, 54.9 mg/kg i.p.): 66.7; Number of dead mice for 7 days ([3]; male, 71.4 mg/kg i.p.): 5/6; Number of dead mice, 1st day ([3]; male, 71.4 mg/kg i.p.): 0/6; Number of dead mice, 4th day ([3]; male, 71.4 mg/kg i.p.): 4/6; Number of dead mice, 5th day ([3]; male, 71.4 mg/kg i.p.): 1/2; Lethality ([3]; male, 71.4 mg/kg i.p.): 83.3; Number of dead mice for 7 days ([3]; male, 91.8 mg/kg i.p.): 6/6; Number of dead mice, 1st day ([3]; male, 91.8 mg/kg i.p.): 0/6; Number of dead mice, 2nd day ([3]; male, 91.8 mg/kg i.p.): 2/6; Number of dead mice, 3rd day ([3]; male, 91.8 mg/kg i.p.): 3/4; Number of dead mice, 4th day ([3]; male, 91.8 mg/kg i.p.): 1/1; Lethality ([3]; male, 91.8 mg/kg i.p.): 100.0; T/C (%) ([4]; 12.5 mg/kg i.p.): 225%; T/C (%) ([4]; 25 mg/kg i.p.): 243%; T/C (%) ([4]; 50 mg/kg i.p.): 192%

Reference: patent publication US5395947A, “Platinum(II) complex and processes for preparing the same” (Sunkyong Industries, Ltd., priority 1991, dated 1995)
